Data taken from PubChem BioAssay (NCI).
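Five compound concentrations were applied to cells in 96-well plates for 48 hours; endpoints were derived by simple linear interpolation of the resulting dose-response curve. GI50: concentration for 50% inhibition of growth. TGI is the concentration that stops growth completely.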

Key:
Experiment in all cases: inhibition of tumour cell growth, NCI panel, 48 h
786-0 renal = system: 786-0 renal
A498 renal = system: A498 renal
A549 NSCLC = system: A549 NSCLC
ACHN renal = system: ACHN renal
CCRF-CEM leukemia = system: CCRF-CEM leukemia
DU-145 prostate = system: DU-145 prostate
HCC-2998 colon = system: HCC-2998 colon
HL-60(TB) leukemia = system: HL-60(TB) leukemia
HOP-62 NSCLC = system: HOP-62 NSCLC
HOP-92 NSCLC = system: HOP-92 NSCLC
HS 578T breast = system: HS 578T breast
HT29 colon = system: HT29 colon
IGROV1 ovarian = system: IGROV1 ovarian
KM12 colon = system: KM12 colon
M14 melanoma = system: M14 melanoma
MALME-3M melanoma = system: MALME-3M melanoma
MCF7 breast = system: MCF7 breast
MDA-MB-231 breast = system: MDA-MB-231 breast
MDA-MB-435 = system: MDA-MB-435
MOLT-4 leukemia = system: MOLT-4 leukemia
NCI-H226 lung = system: NCI-H226 lung
NCI-H460 lung = system: NCI-H460 lung
NCI-H522 lung = system: NCI-H522 lung
NCI/ADR-RES ovarian = system: NCI/ADR-RES ovarian
OVCAR-3 ovarian = system: OVCAR-3 ovarian
OVCAR-4 ovarian = system: OVCAR-4 ovarian
OVCAR-5 ovarian = system: OVCAR-5 ovarian
OVCAR-8 ovarian = system: OVCAR-8 ovarian
PC-3 prostate = system: PC-3 prostate
RXF 393 renal = system: RXF 393 renal
SF-268 CNS = system: SF-268 CNS
SF-295 CNS = system: SF-295 CNS
SF-539 CNS = system: SF-539 CNS
SK-MEL-2 melanoma = system: SK-MEL-2 melanoma
SK-MEL-28 melanoma = system: SK-MEL-28 melanoma
SK-MEL-5 melanoma = system: SK-MEL-5 melanoma
SK-OV-3 ovarian = system: SK-OV-3 ovarian
SN12C renal = system: SN12C renal
SNB-19 CNS = system: SNB-19 CNS
SNB-75 CNS = system: SNB-75 CNS
SW-620 colon = system: SW-620 colon
TK-10 renal = system: TK-10 renal
U251 CNS = system: U251 CNS
UACC-257 melanoma = system: UACC-257 melanoma
UACC-62 melanoma = system: UACC-62 melanoma
UO-31 renal = system: UO-31 renal
BT-549 breast = system: BT-549 breast

Compound `CC(=O)/C=C/c1ccc(OCc2ccc(C(C)(C)C)cc2)cc1` has a GI50 (786-0 renal) of over 1 mM, a TGI (786-0 renal) of over 1 mM and a GI50 (A498 renal) of over 1 mM. For the same compound, the TGI (A498 renal) was over 1 mM, the GI50 (A549 NSCLC) was over 1 mM and the TGI (A549 NSCLC) was over 1 mM. It also gave a GI50 (ACHN renal) of over 1 mM, a TGI (ACHN renal) of over 1 mM and a GI50 (CCRF-CEM leukemia) of over 1 mM. The TGI (CCRF-CEM leukemia) was over 1 mM, the GI50 (DU-145 prostate) was over 1 mM and the TGI (DU-145 prostate) was over 1 mM. The GI50 (HCC-2998 colon) was over 1 mM, the TGI (HCC-2998 colon) was over 1 mM and the GI50 (HL-60(TB) leukemia) was over 1 mM. It also gave a TGI (HL-60(TB) leukemia) of over 1 mM, a GI50 (HOP-62 NSCLC) of over 1 mM and a TGI (HOP-62 NSCLC) of over 1 mM. For the same compound, the GI50 (HOP-92 NSCLC) was over 1 mM, the TGI (HOP-92 NSCLC) was over 1 mM and the GI50 (HS 578T breast) was over 1 mM. It also gave a TGI (HS 578T breast) of over 1 mM, a GI50 (HT29 colon) of 0.0407 mM and a TGI (HT29 colon) of over 1 mM. The GI50 (IGROV1 ovarian) was over 1 mM, the TGI (IGROV1 ovarian) was over 1 mM and the GI50 (KM12 colon) was over 1 mM. For the same compound, the TGI (KM12 colon) was over 1 mM, the GI50 (M14 melanoma) was over 1 mM and the TGI (M14 melanoma) was over 1 mM. For the same compound, the GI50 (MALME-3M melanoma) was over 1 mM, the TGI (MALME-3M melanoma) was over 1 mM and the GI50 (MCF7 breast) was over 1 mM. The TGI (MCF7 breast) was over 1 mM, the GI50 (MDA-MB-231 breast) was over 1 mM and the TGI (MDA-MB-231 breast) was over 1 mM. It also gave a GI50 (MDA-MB-435) of over 1 mM, a TGI (MDA-MB-435) of over 1 mM and a GI50 (MOLT-4 leukemia) of over 1 mM. It also gave a TGI (MOLT-4 leukemia) of over 1 mM, a GI50 (NCI-H226 lung) of over 1 mM and a TGI (NCI-H226 lung) of over 1 mM. It also gave a GI50 (NCI-H460 lung) of over 1 mM, a TGI (NCI-H460 lung) of over 1 mM and a GI50 (NCI-H522 lung) of over 1 mM. For the same compound, the TGI (NCI-H522 lung) was over 1 mM, the GI50 (NCI/ADR-RES ovarian) was over 1 mM and the TGI (NCI/ADR-RES ovarian) was over 1 mM. It also gave a GI50 (OVCAR-3 ovarian) of over 1 mM, a TGI (OVCAR-3 ovarian) of over 1 mM and a GI50 (OVCAR-4 ovarian) of over 1 mM. The TGI (OVCAR-4 ovarian) was over 1 mM, the GI50 (OVCAR-5 ovarian) was over 1 mM and the TGI (OVCAR-5 ovarian) was over 1 mM. It also gave a GI50 (OVCAR-8 ovarian) of over 1 mM, a TGI (OVCAR-8 ovarian) of over 1 mM and a GI50 (PC-3 prostate) of over 1 mM. It also gave a TGI (PC-3 prostate) of over 1 mM, a GI50 (RXF 393 renal) of over 1 mM and a TGI (RXF 393 renal) of over 1 mM. The GI50 (SF-268 CNS) was over 1 mM, the TGI (SF-268 CNS) was over 1 mM and the GI50 (SF-295 CNS) was over 1 mM. The TGI (SF-295 CNS) was over 1 mM, the GI50 (SF-539 CNS) was over 1 mM and the TGI (SF-539 CNS) was over 1 mM. It also gave a GI50 (SK-MEL-2 melanoma) of over 1 mM, a TGI (SK-MEL-2 melanoma) of over 1 mM and a GI50 (SK-MEL-28 melanoma) of over 1 mM. For the same compound, the TGI (SK-MEL-28 melanoma) was over 1 mM, the GI50 (SK-MEL-5 melanoma) was 0.0465 mM and the TGI (SK-MEL-5 melanoma) was over 1 mM. For the same compound, the GI50 (SK-OV-3 ovarian) was over 1 mM, the TGI (SK-OV-3 ovarian) was over 1 mM and the GI50 (SN12C renal) was over 1 mM. It also gave a TGI (SN12C renal) of over 1 mM, a GI50 (SNB-19 CNS) of over 1 mM and a TGI (SNB-19 CNS) of over 1 mM. For the same compound, the GI50 (SNB-75 CNS) was over 1 mM, the TGI (SNB-75 CNS) was over 1 mM and the GI50 (SW-620 colon) was over 1 mM. It also gave a TGI (SW-620 colon) of over 1 mM, a GI50 (TK-10 renal) of over 1 mM and a TGI (TK-10 renal) of over 1 mM. For the same compound, the GI50 (U251 CNS) was over 1 mM, the TGI (U251 CNS) was over 1 mM and the GI50 (UACC-257 melanoma) was over 1 mM. The TGI (UACC-257 melanoma) was over 1 mM, the GI50 (UACC-62 melanoma) was over 1 mM and the TGI (UACC-62 melanoma) was over 1 mM. It also gave a GI50 (UO-31 renal) of over 1 mM and a TGI (UO-31 renal) of over 1 mM.

`Clc1cc(Cl)cc(-c2ccc(-c3ccc(/C=N/NC4=NCCN4)cc3)s2)c1` was tested, and the GI50 (A498 renal) was 0.00139 mM, the TGI (A498 renal) was 0.00578 mM and the GI50 (BT-549 breast) was 0.00924 mM. For the same compound, the TGI (BT-549 breast) was 0.0574 mM, the GI50 (DU-145 prostate) was 0.00177 mM and the TGI (DU-145 prostate) was 0.0032 mM. The GI50 (HS 578T breast) was 0.0023 mM, the TGI (HS 578T breast) was 0.00641 mM and the GI50 (KM12 colon) was 0.00171 mM. For the same compound, the TGI (KM12 colon) was 0.00312 mM, the GI50 (NCI-H226 lung) was 0.00416 mM and the TGI (NCI-H226 lung) was over 0.1 mM. It also gave a GI50 (SF-268 CNS) of 0.00198 mM, a TGI (SF-268 CNS) of 0.00467 mM and a GI50 (SF-539 CNS) of 0.0017 mM. The TGI (SF-539 CNS) was 0.00307 mM, the GI50 (SK-MEL-28 melanoma) was 0.00209 mM and the TGI (SK-MEL-28 melanoma) was 0.00469 mM. The GI50 (SK-MEL-5 melanoma) was 0.00461 mM, the TGI (SK-MEL-5 melanoma) was over 0.1 mM and the GI50 (SNB-75 CNS) was 0.00178 mM. The TGI (SNB-75 CNS) was 0.00793 mM.
